Reference: patent publication US20260191968A1, “PROTAC DEGRADERS OF MLLT1 AND/OR MLLT3” (DARK BLUE THERAPEUTICS LTD, priority 2024, published 2026)

Target: T1, MLLT1 (Homo sapiens, UniProt Q03111)
T1 construct: host or cells: MV4-11
T1 sequence (Q03111 1-559): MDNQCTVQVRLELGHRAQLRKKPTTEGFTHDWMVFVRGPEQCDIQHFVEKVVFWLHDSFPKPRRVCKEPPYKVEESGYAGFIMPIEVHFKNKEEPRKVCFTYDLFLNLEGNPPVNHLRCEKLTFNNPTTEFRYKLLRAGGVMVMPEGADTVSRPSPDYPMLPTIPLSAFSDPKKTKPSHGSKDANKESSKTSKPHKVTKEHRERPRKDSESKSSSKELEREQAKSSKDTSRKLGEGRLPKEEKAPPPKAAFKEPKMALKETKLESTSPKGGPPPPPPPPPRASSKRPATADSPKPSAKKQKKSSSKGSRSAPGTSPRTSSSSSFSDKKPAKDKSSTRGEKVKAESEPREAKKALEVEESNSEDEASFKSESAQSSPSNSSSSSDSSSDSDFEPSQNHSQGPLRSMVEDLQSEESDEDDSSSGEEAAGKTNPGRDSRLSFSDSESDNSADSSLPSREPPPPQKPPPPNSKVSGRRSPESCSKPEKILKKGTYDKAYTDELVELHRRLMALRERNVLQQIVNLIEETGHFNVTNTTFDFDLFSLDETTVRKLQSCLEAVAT
Test: MLLT1 degradation assay in MV4-11 cells (JESS chemiluminescent detection), three concentrations, 24 h
Format: cell-based
Conditions: with respect to DMSO control
How it was run: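 Read-out is % MLLT1 degradation versus DMSO, from band peak areas on a JESS chemiluminescent system. Cells (MV4-11) were exposed for 24 h at 37° C to three compound levels, 10, 100 and 1000 nM, in 0.1% DMSO.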

SMILES | MLLT1% Degradation @ 0.01 μM | MLLT1% Degradation @ 0.1 μM | MLLT1% Degradation @ 1 μM
CN1CCC[C@@H]1c1cc2cnc(NC(=O)c3ccc(CCCCC#Cc4cc5c(cc4F)C(=O)N(C4CCC(=O)NC4=O)C5)cc3F)cc2[nH]1 (stereo partly drawn) [Example 114, 4-(6-(2-(2,6-dioxopiperidin-3-yl)-6-fluoro-1-oxoisoindolin-5-yl)hex-5-yn-1-yl)-2-fluoro-N-(2-((R)-1-methylpyrrolidin-2-yl)-1H-pyrrolo[3,2-c]pyridin-6-yl)benzamide] | D (Category D: D < 25% degradation) | C (Category C: 25% ≤ C < 50% degradation) | C (Category C: 25% ≤ C < 50% degradation)
COc1nc(N2CCN(CC3CCN(c4cccc5c4CN(C4CCC(=O)NC4=O)C5=O)CC3)CC2)ccc1C(=O)Nc1cc2[nH]c([C@H]3CCCN3C)cc2cn1 (stereo partly drawn) [Example 126, 6-(4-((1-(2-(2,6-dioxopiperidin-3-yl)-1-oxoisoindolin-4-yl)piperidin-4-yl)methyl)piperazin-1-yl)-2-methoxy-N-(2-((R)-1-methylpyrrolidin-2-yl)-1H-pyrrolo[3,2-c]pyridin-6-yl) nicotinamide] | C (Category C: 25% ≤ C < 50% degradation) | C (Category C: 25% ≤ C < 50% degradation) | C (Category C: 25% ≤ C < 50% degradation)
C[C@H]1CN(CC2CCN(c3cccc4c3CN(C3CCC(=O)NC3=O)C4=O)CC2)CCN1c1ccc(C(=O)Nc2cc3[nH]c([C@H]4CCCN4C)cc3cn2)cn1 (stereo partly drawn) [Example 127, 6-((2S)-4-((1-(2-(2,6-dioxopiperidin-3-yl)-1-oxoisoindolin-4-yl)piperidin-4-yl)methyl)-2-methylpiperazin-1-yl)-N-(2-((R)-1-methylpyrrolidin-2-yl)-1H-pyrrolo[3,2-c]pyridin-6-yl)nicotinamide] | B (Category B: 50% ≤ B < 75% degradation) | B (Category B: 50% ≤ B < 75% degradation) | B (Category B: 50% ≤ B < 75% degradation)
CN1CCC[C@@H]1c1cc2cnc(NC(=O)c3ccc(CCCC4CCN(c5cccc6c5C(=O)N(C5CCC(=O)NC5=O)C6=O)CC4)cc3)cc2[nH]1 (stereo partly drawn) [Example 128, 4-(3-(1-(2-(2,6-dioxopiperidin-3-yl)-1,3-dioxoisoindolin-4-yl)piperidin-4-yl)propyl)-N-(2-((R)-1-methylpyrrolidin-2-yl)-1H-pyrrolo[3,2-c]pyridin-6-yl)benzamide] | C (Category C: 25% ≤ C < 50% degradation) | A (Category A: A ≥ 75% degradation) | A (Category A: A ≥ 75% degradation)
CN1CCC[C@@H]1c1cc2cnc(NC(=O)c3ccc(CCCN4CCN(c5cccc6c5C(=O)N(C5CCC(=O)NC5=O)C6=O)CC4)cc3)cc2[nH]1 (stereo partly drawn) [Example 130, 4-(3-(4-(2-(2,6-dioxopiperidin-3-yl)-1,3-dioxoisoindolin-4-yl)piperazin-1-yl)propyl)-N-(2-((R)-1-methylpyrrolidin-2-yl)-1H-pyrrolo[3,2-c]pyridin-6-yl)benzamide] | B (Category B: 50% ≤ B < 75% degradation) | A (Category A: A ≥ 75% degradation) | A (Category A: A ≥ 75% degradation)
CN1CCC[C@@H]1c1cc2cnc(NC(=O)c3ccc(N4CCC(OC5CCN(c6cccc7c6C(=O)N(C6CCC(=O)NC6=O)C7=O)CC5)CC4)cc3)cc2[nH]1 (stereo partly drawn) [Example 136, 4-(4-((1-(2-(2,6-dioxopiperidin-3-yl)-1,3-dioxoisoindolin-4-yl)piperidin-4-yl)oxy)piperidin-1-yl)-N-(2-((R)-1-methylpyrrolidin-2-yl)-1H-pyrrolo[3,2-c]pyridin-6-yl)benzamide] | C (Category C: 25% ≤ C < 50% degradation) | B (Category B: 50% ≤ B < 75% degradation) | B (Category B: 50% ≤ B < 75% degradation)
CN1CCC[C@@H]1c1cc2cnc(NC(=O)c3ccc(N4CCC(OC5CCN(c6ccc7c(c6)CN(C6CCC(=O)NC6=O)C7=O)CC5)CC4)nc3)cc2[nH]1 (stereo partly drawn) [Example 139, 6-(4-((1-(2-(2,6-dioxopiperidin-3-yl)-1-oxoisoindolin-5-yl)piperidin-4-yl)oxy)piperidin-1-yl)-N-(2-((R)-1-methylpyrrolidin-2-yl)-1H-pyrrolo[3,2-c]pyridin-6-yl)nicotinamide] | B (Category B: 50% ≤ B < 75% degradation) | B (Category B: 50% ≤ B < 75% degradation) | B (Category B: 50% ≤ B < 75% degradation)
CN1CCC[C@@H]1c1cc2cnc(NC(=O)c3ccc(N4CCC(OCC5CCN(c6cccc7c6CN(C6CCC(=O)NC6=O)C7=O)CC5)CC4)cc3)cc2[nH]1 (stereo partly drawn) [Example 146, 4-(4-((1-(2-(2,6-dioxopiperidin-3-yl)-1-oxoisoindolin-4-yl)piperidin-4-yl)methoxy)piperidin-1-yl)-N-(2-((R)-1-methylpyrrolidin-2-yl)-1H-pyrrolo[3,2-c]pyridin-6-yl)benzamide] | B (Category B: 50% ≤ B < 75% degradation) | B (Category B: 50% ≤ B < 75% degradation) | B (Category B: 50% ≤ B < 75% degradation)
CN1CCC[C@@H]1c1cc2cnc(NC(=O)c3ccc(N4CCC(OCC5CCN(c6cccc7c6C(=O)N(C6CCC(=O)NC6=O)C7=O)CC5)CC4)cc3)cc2[nH]1 (stereo partly drawn) [Example 151, 4-(4-((1-(2-(2,6-dioxopiperidin-3-yl)-1,3-dioxoisoindolin-4-yl)piperidin-4-yl)methoxy)piperidin-1-yl)-N-(2-((R)-1-methylpyrrolidin-2-yl)-1H-pyrrolo[3,2-c]pyridin-6-yl)benzamide] | C (Category C: 25% ≤ C < 50% degradation) | B (Category B: 50% ≤ B < 75% degradation) | A (Category A: A ≥ 75% degradation)
CN1CCC[C@@H]1c1cc2cnc(NC(=O)c3ccc(N4CCC(C5CCN(c6cccc7c6C(=O)N(C6CCC(=O)NC6=O)C7=O)CC5)CC4)nc3)cc2[nH]1 (stereo partly drawn) [Example 152, 6-(1′-(2-(2,6-dioxopiperidin-3-yl)-1,3-dioxoisoindolin-4-yl)-[4,4′-bipiperidin]-1-yl)-N-(2-((R)-1-methylpyrrolidin-2-yl)-1H-pyrrolo[3,2-c]pyridin-6-yl)nicotinamide] | D (Category D: D < 25% degradation) | B (Category B: 50% ≤ B < 75% degradation) | A (Category A: A ≥ 75% degradation)
CN1CCC[C@@H]1c1cc2cnc(NC(=O)c3ccc(OCCN4CCC5(CC4)CCN(c4ccc6c(c4)C(=O)N(C4CCC(=O)NC4=O)C6=O)CC5)cc3)cc2[nH]1 (stereo partly drawn) [Example 166, 4-(2-(9-(2-(2,6-dioxopiperidin-3-yl)-1,3-dioxoisoindolin-5-yl)-3,9-diazaspiro[5.5]undecan-3-yl)ethoxy)-N-(2-((R)-1-methylpyrrolidin-2-yl)-1H-pyrrolo[3,2-c]pyridin-6-yl)benzamide] | C (Category C: 25% ≤ C < 50% degradation) | A (Category A: A ≥ 75% degradation) | A (Category A: A ≥ 75% degradation)
CN1CCC[C@@H]1c1cc2cnc(NC(=O)c3ccc(N4CCC(c5ccc(-c6cccc7c6C(=O)N(C6CCC(=O)NC6=O)C7=O)cc5)CC4)nc3)cc2[nH]1 (stereo partly drawn) [Example 178, 6-(4-(4-(2-(2,6-dioxopiperidin-3-yl)-1,3-dioxoisoindolin-4-yl)phenyl)piperidin-1-yl)-N-(2-((R)-1-methylpyrrolidin-2-yl)-1H-pyrrolo[3,2-c]pyridin-6-yl)nicotinamide] | C (Category C: 25% ≤ C < 50% degradation) | B (Category B: 50% ≤ B < 75% degradation) | B (Category B: 50% ≤ B < 75% degradation)
CN1CCC[C@@H]1c1cc2cnc(NC(=O)c3ccc(OCCC4CCN(c5cccc6c5C(=O)N(C5CCC(=O)NC5=O)C6=O)CC4)nc3)cc2[nH]1 (stereo partly drawn) [Example 179, 6-(2-(1-(2-(2,6-dioxopiperidin-3-yl)-1,3-dioxoisoindolin-4-yl)piperidin-4-yl)ethoxy)-N-(2-((R)-1-methylpyrrolidin-2-yl)-1H-pyrrolo[3,2-c]pyridin-6-yl)nicotinamide] | B (Category B: 50% ≤ B < 75% degradation) | B (Category B: 50% ≤ B < 75% degradation) | B (Category B: 50% ≤ B < 75% degradation)
CN1CCC[C@@H]1c1cc2cnc(NC(=O)c3ccc(N4CCN(CC5CCN(c6cc7c(cc6F)C(=O)N(C6CCC(=O)NC6=O)C7=O)CC5)CC4)cc3)cc2[nH]1 (stereo partly drawn) [Example 180, 4-(4-((1-(2-(2,6-dioxopiperidin-3-yl)-6-fluoro-1,3-dioxoisoindolin-5-yl)piperidin-4-yl)methyl)piperazin-1-yl)-N-(2-((R)-1-methylpyrrolidin-2-yl)-1H-pyrrolo[3,2-c]pyridin-6-yl)benzamide] | C (Category C: 25% ≤ C < 50% degradation) | B (Category B: 50% ≤ B < 75% degradation) | B (Category B: 50% ≤ B < 75% degradation)
